Here are results for nine molecules from patent US20110129868A1, “CELL CAPABLE OF REPLICATING NOVEL HCV REPLICON, CELL CAPABLE OF REPLICATING FULL-LENGTH HCV RNA, AND USE OF THOSE CELLS” (priority 2008, published 2011).

Read-outs that look alike come from different tables or passages of the source. A value given as a limit tells only on which side of the number the result lay.

The test system of data set [1] is full-length HCV RNA replication in ORL11 cells. The experiment in a line: microbe, parasite or virus in culture. The conditions noted are these: for luciferase activity after treatment (single agent or combined use): drug concentrations based on the EC50 values. It counts as cell-based, HCV-O strain (genotype 1b). The protocol:
(§1) Renilla luciferase was quantified by collecting cells using a Renilla Luciferase Assay System (Promega) according to the manufacturer's experiment protocol.
(§2) Luciferase activity of each cell line was then measured at hour 24, 48, and 72. […] SD values were calculated based on the results from three samples at each point. […]

The test system of data set [2] is full-length HCV RNA replication in ORL8 cells. Nature of the data set: microbe, parasite or virus in culture. Type of data set: cell-based, HCV-O strain (genotype 1b). The following applies: for EC50: Hepatitis C virus; for luciferase activity after treatment (single agent or combined use): drug concentrations based on the EC50 values. As to the method: as §1, §2

A further data set relates to ORL11 cells. The experiment in a line: cell count by trypan blue staining, ORL11 cells. It counts as cell-based, human.
In a further data set the test system is OR6 cells. Nature of the data set: cell count by trypan blue staining, OR6 cells. It counts as cell-based, human. The following applies: drug at the concentration corresponding to the EC50 value.
For a further data set, the system named is ORL8 cells. Nature of the data set: cell count by trypan blue staining, ORL8 cells. The following applies: drug at the concentration corresponding to the EC50 value. It counts as cell-based, human.
Data set [3] concerns full-length HCV RNA replication in OR6 cells. Nature of the data set: microbe, parasite or virus in culture. It counts as cell-based, HCV-O strain (genotype 1b). The conditions noted are these: for luciferase activity after treatment (single agent or combined use): drug concentrations based on the EC50 values.
Description: as §1
An OR6-cell assay system was used as a control.

Data set [4] concerns HCV replicon of Con1 strain. The following applies: cited from earlier work.
The mark [5] stands for this setting: ORL11 cells, drug at the concentration corresponding to the EC50 value, trypan blue.
The mark [6] stands for this setting: Hepatitis C virus, 72 h, luciferase activity after 72 hours, read-out: EC50.
Where [7] appears, read: ORL8 cells, luciferase activity after 72 hours, read-out: EC50.
[8] abbreviates: Hepatitis C virus, OR6 cells, luciferase activity after 72 hours, read-out: EC50.

For `CC(=O)Oc1ccccc1C(=O)O` [ASA, Acetylsalicylic Acid], the EC50 was 1170 µM in data set [1] (Hepatitis C virus, 72 h, luciferase activity after 72 hours); 1330 µM in data set [2] (ORL8, 72 h); 2160 µM in data set [3] (Hepatitis C virus, OR6, 72 h); 4000 µM in data set [4] (HCV replicons of Con1 strain (Trujillo-Murillo et al.)). Also, the “cell count over the control cells” value in the data set on ORL11 cells (setting [5]) was found to be 72%; with OR6 cells it was 51%; in the data set with ORL8 cells it was 53%.
In the case of `CC(C)n1c(/C=C/C(O)CC(O)CC(=O)O)c(-c2ccc(F)cc2)c2ccccc21` (stereo not drawn) [FLV, Fluvastatin], the EC50 in data set [1] (FLV from a different manufacturer (LKT laboratories Inc., F4482), read-out: EC50) is 0.14 µM; in data set [1] (setting [6]), 0.32 µM; in data set [1] (Hepatitis C virus, FLV from a different manufacturer (LKT laboratories Inc., F4482), read-out: EC50), 0.11 µM; in data set [2] (ORL8 cells, FLV from a different manufacturer (LKT laboratories Inc., F4482), read-out: EC50), 0.31 µM; in data set [2] (setting [7]) it was 0.28 µM; in data set [3] (Hepatitis C virus, OR6 cells, FLV from a different manufacturer (LKT laboratories Inc., F4482), read-out: EC50) it was 1.44 µM. Further, in data set [3] (setting [8]), the EC50 was determined as 1.22 µM. The results for the “luciferase activity after treatment (single agent or combined use)” value in data set [1], in data set [2] (ORL8 cells) and in data set [3] (OR6 cells) were 51%, 59% and 55%, respectively. Further, the “cell count over the control cells” value in the data set with ORL11 cells (setting [5]), in the data set with OR6 cells and in the data set with ORL8 cells was not below 97% each time.
Turning to `COC1=C2C[C@@H](C)C[C@H](OC)[C@H](O)[C@@H](C)/C=C(\C)[C@H](OC(N)=O)[C@@H](OC)/C=C\C=C(/C)C(=O)NC(=CC1=O)C2=O` [Geldanamycin], the EC50 in data set [1] (setting [6]) was found to be 0.00331 µM; in data set [2] (setting [7]) it was 0.00257 µM; in data set [3] (setting [8]), 0.0021 µM.
Take `CC[C@H](C)C(=O)O[C@H]1C[C@@H](C)C=C2C=C[C@H](C)[C@H](CC[C@@H]3C[C@@H](O)CC(=O)O3)[C@H]21` [LOV, Lovastatin]: the EC50 amounted to 1.04 µM in data set [1] (setting [6]), 1.49 µM in data set [2] (setting [7]) and 3 µM in data set [3] (setting [8]).
Consider `NC(=O)c1ncn([C@@H]2O[C@H](CO)[C@@H](O)[C@H]2O)c1O` [Mizoribine], for which the EC50 came out at 76.5 µM in data set [1] (setting [6]) and 58.8 µM in data set [2] (setting [7]). Further, in data set [3] (OR6 cells, at 200 μM, after 72 hours), the “luciferase activity (value relative to no drug)” value is recorded as “above 50%”.
Turning to `CCCCCCC(=O)CCCCCC/C=C/C[C@@H](O)[C@H](O)[C@@](N)(CO)C(=O)O` [Myriocin], the EC50 in data set [1] (setting [6]) is 0.00362 µM; in data set [2] (setting [7]), 0.00516 µM; in data set [4] (Con1 strain, analyzed 72 hours after the addition of the drug), 0.0058 µM. In addition, the “cell count over the control cells” value was not below 91% in the data set with ORL11 cells (setting [5]), not below 91% with OR6 cells and 83.5% in the data set with ORL8 cells. Moreover, the “luciferase activity (relative to no drug)” value in data set [3] (OR6 cells, at 5 nM to 40 nM, after 72 hours, EC50 not calculable) is “below 60%”.
Consider `O=C(O)C[C@H](O)C[C@H](O)/C=C/c1c(C2CC2)nc2ccccc2c1-c1ccc(F)cc1` [PTV, Pitavastatin], for which the EC50 in data set [1] (setting [6]) was 0.16 µM; in data set [2] (setting [7]) it was 0.45 µM; in data set [3] (setting [8]) it was 0.46 µM. In addition, the “luciferase activity after treatment (single agent or combined use)” value in data set [1] turned out to be 49%; in data set [2] (ORL8 cells), 43%; in data set [3] (OR6 cells), 56%. Also, the “cell count over the control cells” value with ORL11 cells (setting [5]), in the data set on OR6 cells and with ORL8 cells was not below 80% each time.
Regarding `CCC(C)(C)C(=O)O[C@H]1C[C@@H](C)C=C2C=C[C@H](C)[C@H](CC[C@@H]3C[C@@H](O)CC(=O)O3)[C@H]21` [SMV, Simvastatin], the EC50 in data set [1] (setting [6]) was 0.15 µM; in data set [2] (setting [7]), 0.28 µM; in data set [3] (setting [8]), 1.42 µM.

B1: IFN-γ: interferon gamma (Sigma), pharmaceutical agent having an anti-HCV action (protein, UniProt P01579 24-161, looked up)
Interferon gamma: QDPYVKEAENLKKYFNAGHSDVADNGTLFLGILKNWKEESDRKIMQSQIVSFYFKLFKNFKDDQSIQKSVETIKEDMNVKFFNSNKKKRDDFEKLTNYSVTDLNVQRKAIHELIQVMAELSPAAKTGKRKRSQMLFRG
Turning to B1, the “EC50 (50% effective drug concentration)” value in data set [1] (luciferase activity after 72 hours) is on record as 0.13 IU/ml; in data set [2] (ORL8 cells, luciferase activity after 72 hours), 0.077 IU/ml. Further, the “cell count over the control cells” value in the data set on ORL11 cells, with OR6 cells and with ORL8 cells was not below 90% in each case. Moreover, the EC50 in data set [3] (OR6 cells, luciferase activity after 72 hours) was 0.21 IU/ml.
